# Measured values as given in patent publication US8466202B2, “Anthracenedione compounds” (Sunten Phytotech Co., Ltd., priority 2006, dated 2013).
# Where “and” joins values, the source holds several entries; their conditions need not be identical. Equal entries are not always repeated.
# Assays:
# [1] = Body weight of rats over the 10-day period (Example 3); type: in vivo, rat; parameters: Body weight Difference: unit not given here; conditions: Sennosides 3.35 mg/kg/day; for Body weight Difference, Mean / Body weight End Day 10, Mean: group mean; for Body weight Difference, Mean / Body weight Difference: Day 10 minus Day 1; for Body weight Difference / Body weight End Day 10: individual rats
# Procedure, shortened: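 Healthy male S.D. rats, 6 per treatment, given test substances daily at 4–24 mg/kg/day (dose per substance), with untreated and 3.35 mg/kg/day sennoside controls. Body weight recorded each day over 10 days; standard food and water ad libitum, 12-hour light/dark cycle.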
# healthy male S.D. rats = assay: Feces production in rats given Rheum palmatum Linne extracts for three weeks (Example 2); type: in vivo, rat; conditions: oral everyday, Rheum palmatum crude extract 500, Bisacodyl 1.75, Sennosides 3.55, STD03 180, STD05-1 12, STD05-2 24 mg/kg; for Water content: feces; for Pellet count / Wet Weight: total of the six rats in the group
# Description: The laxative activities by Rheum palmatum Linne extracts were studied. A crude Rheum palmatum Linne extract and STD05 were obtained from SunTen Phytotech Co., Ltd. (Jhonghe City, Taiwan). Commercial available laxatives, Through® (Chung Mei Pharmaceutical Co., Ltd.; active ingredient: Sennosides 20 mg, as Sennosides A+B 12 mg, Lot. 009A 051) and Dulcolax® (Boehringer Ingelheim, Taiwan, Ltd.; active ingredient: Bisacodyl; Lot. 480-4942) were obtained from a pharmacy.
# Forty-two healthy male S.D. rats (8 weeks old; National Laboratory Animal Center, Taiwan) were divided into seven groups (six in each) and tested for the laxative activity by Rheum palmatum Linne extracts. The rats in one group were not fed with any extract or drug and used as negative controls. The rats in the second and third group were given Sennosides (3.55 mg/kg) and Bisacodyl (1.75 mg/kg), respectively, and used as positive controls. The Rats in the other four groups were given Rheum palmatum Linne crude extract (500 mg/kg), filtered crude extract STD03 (180 mg/kg), and STD05 (STD05-1: 12 mg/kg and STD05-2: 24 mg/kg), respectively. All substances were administered orally everyday for three weeks.
# The experiments were carried out under conditions in which temperature, humidity, and lighting were all controlled. Each rat was fed standard rat food and water ad libitum in housing that provided a 12-hour light/dark cycle. The rats were divided into seven groups according to the body weights.
# The first part of the experiment studied the effect of the above-mentioned extracts on feces production. During the three-week period, any rat that appeared dying was euthanized, dissected, and studied to check for any illness or injures. Any complications or illness were analyzed by H&E stains to determine the cause of death and to allow for dosage reconsiderations for future experiments.
# During this period, the body weights of the rats were weighed each day and recorded. Feces of each rat were studied three times during the period for any unusual observations. Specifically, the amounts of feces were weighed on Days 11, 15, 18, and 21. During observation, each rat was placed in a metabolic cage. Feces were collected every twenty-four hours. The number of collected feces pellets was counted, and the pellets' shapes and colors were evaluated. After weighing the moist feces, they were dried in an oven at 100° C. for twenty-four hours. The water content from the feces was calculated according to the following formula: Water content percentage=[(wet weight−dry weight)/wet weight]×100%.
# Intestine motility data were expressed as mean±SD. Data were analyzed using the one-way ANOVA method. For comparison within the groups, a Post hoc Comparison was applied. In both feces production and intestine motility analyses, p<0.05 indicates significant differences. For the feces production tests, the data for each group and each time point represent the total wet weight or pellet count of the six rats in the group.
# [2] = Group I, STD05 8 mg/kg, ARE 8 mg/kg, Aloe-emodin 4 mg/kg, Rhein 4 mg/kg
# [3] = Group II, STD05 24 mg/kg, ARE 24 mg/kg, Chrysophanol 4 mg/kg, Emodin 4 mg/kg
substance,measurement,setting,value
Sennosides,"Body weight Difference, Mean",[1]; [2],53 g
same,"Body weight End Day 10, Mean",[1]; [2],338 g
same,Body weight Difference,[1]; [2],45 (2×) and 60 and 35 and 65 and 70
same,Body weight End Day 10,[1]; [2],325 and 330 and 350 (2×) and 310 and 365
same,"Body weight Difference, Mean",[1]; [3],41 g
same,"Body weight End Day 10, Mean",[1]; [3],398 g
same,Body weight Difference,[1]; [3],30 and 45 and 40 (2×) and 35 and 55
same,Body weight End Day 10,"[1]; Group II, STD05 24 mg/kg, ARE 24 mg/kg, Chrysophanol 4 mg/kg, Emodin 4 mg/kg, in g (unit assumed)",370 and 395 and 405 and 360 and 410 and 445
same,Water content,healthy male S.D. rats; Day 11,52.70%
same,Pellet count,healthy male S.D. rats; Day 11,121
same,Wet Weight,healthy male S.D. rats; Day 11,29.21 g
same,Water content,healthy male S.D. rats; Day 15,60.40%
same,Pellet count,healthy male S.D. rats; Day 15,119
same,Wet Weight,healthy male S.D. rats; Day 15,30.95 g
same,Water content,healthy male S.D. rats; Day 18,47.30%
same,Pellet count,healthy male S.D. rats; Day 18,106
same,Wet Weight,healthy male S.D. rats; Day 18,23.90 g
same,Water content,healthy male S.D. rats; Day 21,44.73%
same,Pellet count,healthy male S.D. rats; Day 21,123
same,Wet Weight,healthy male S.D. rats; Day 21,27.80 g
